Assay results from patent US10246451B2, “Propionic acid derivatives and methods of use thereof” (Aviara Pharmaceuticals, Inc., priority 2017, dated 2019).

Columns and labels:
α4β7 integrin = target: T1, α4β7 integrin (Homo sapiens, UniProt P13612+P26010); assay: a4b7 IC50 (inhibition of α4β7 integrin; no method described); assay type: binding
T1 sequence (P13612 34-1032): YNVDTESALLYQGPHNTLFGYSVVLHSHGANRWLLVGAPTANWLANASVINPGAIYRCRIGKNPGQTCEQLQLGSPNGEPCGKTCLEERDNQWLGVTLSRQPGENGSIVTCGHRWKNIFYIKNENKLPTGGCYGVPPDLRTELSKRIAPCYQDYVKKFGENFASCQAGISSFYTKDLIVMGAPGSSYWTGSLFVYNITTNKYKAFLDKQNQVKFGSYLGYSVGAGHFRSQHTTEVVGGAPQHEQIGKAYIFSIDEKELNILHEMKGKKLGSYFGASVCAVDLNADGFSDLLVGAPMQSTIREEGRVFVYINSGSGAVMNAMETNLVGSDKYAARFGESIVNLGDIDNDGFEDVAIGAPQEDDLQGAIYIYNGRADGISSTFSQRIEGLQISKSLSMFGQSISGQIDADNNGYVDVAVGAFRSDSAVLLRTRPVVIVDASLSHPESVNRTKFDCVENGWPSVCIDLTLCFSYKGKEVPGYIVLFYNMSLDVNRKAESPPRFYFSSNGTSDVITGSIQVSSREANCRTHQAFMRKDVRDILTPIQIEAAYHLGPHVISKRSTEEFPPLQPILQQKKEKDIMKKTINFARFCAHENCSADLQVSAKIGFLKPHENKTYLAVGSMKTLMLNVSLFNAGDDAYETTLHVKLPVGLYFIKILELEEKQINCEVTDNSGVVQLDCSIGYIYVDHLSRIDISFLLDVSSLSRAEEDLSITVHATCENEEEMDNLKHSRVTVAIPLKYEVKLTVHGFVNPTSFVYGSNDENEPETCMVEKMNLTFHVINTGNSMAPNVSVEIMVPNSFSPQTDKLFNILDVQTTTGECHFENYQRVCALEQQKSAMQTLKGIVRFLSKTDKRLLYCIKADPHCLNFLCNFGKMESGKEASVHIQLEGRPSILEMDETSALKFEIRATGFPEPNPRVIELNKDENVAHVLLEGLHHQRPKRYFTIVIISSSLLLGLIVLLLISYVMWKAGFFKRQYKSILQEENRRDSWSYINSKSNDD
T1 sequence (P26010 20-798): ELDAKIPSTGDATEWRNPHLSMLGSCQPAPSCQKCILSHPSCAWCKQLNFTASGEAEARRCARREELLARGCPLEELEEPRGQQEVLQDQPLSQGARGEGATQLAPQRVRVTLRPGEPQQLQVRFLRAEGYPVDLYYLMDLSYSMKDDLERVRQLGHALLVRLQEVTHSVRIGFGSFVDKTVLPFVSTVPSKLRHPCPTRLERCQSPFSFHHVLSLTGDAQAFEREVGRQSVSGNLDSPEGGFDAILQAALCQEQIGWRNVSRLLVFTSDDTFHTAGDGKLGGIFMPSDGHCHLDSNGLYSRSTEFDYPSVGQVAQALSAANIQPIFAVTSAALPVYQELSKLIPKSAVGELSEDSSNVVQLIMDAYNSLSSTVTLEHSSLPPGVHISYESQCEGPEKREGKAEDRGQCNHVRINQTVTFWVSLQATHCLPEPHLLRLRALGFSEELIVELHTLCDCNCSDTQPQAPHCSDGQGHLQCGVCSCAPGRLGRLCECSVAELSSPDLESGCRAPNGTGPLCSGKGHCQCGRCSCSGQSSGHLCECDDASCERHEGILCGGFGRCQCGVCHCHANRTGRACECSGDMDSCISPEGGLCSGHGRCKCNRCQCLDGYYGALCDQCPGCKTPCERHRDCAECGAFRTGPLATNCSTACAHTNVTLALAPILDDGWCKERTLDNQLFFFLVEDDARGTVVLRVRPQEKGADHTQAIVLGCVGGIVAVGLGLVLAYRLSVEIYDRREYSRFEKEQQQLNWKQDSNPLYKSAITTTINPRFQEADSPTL

α4β1 integrin = α4β1 integrin (Homo sapiens, UniProt P05556+P13612); assay: a4b1 IC50 (inhibition of α4β1 integrin; no method described); assay type: binding
Sequence of α4β1 integrin (P05556 21-798, one chain of several): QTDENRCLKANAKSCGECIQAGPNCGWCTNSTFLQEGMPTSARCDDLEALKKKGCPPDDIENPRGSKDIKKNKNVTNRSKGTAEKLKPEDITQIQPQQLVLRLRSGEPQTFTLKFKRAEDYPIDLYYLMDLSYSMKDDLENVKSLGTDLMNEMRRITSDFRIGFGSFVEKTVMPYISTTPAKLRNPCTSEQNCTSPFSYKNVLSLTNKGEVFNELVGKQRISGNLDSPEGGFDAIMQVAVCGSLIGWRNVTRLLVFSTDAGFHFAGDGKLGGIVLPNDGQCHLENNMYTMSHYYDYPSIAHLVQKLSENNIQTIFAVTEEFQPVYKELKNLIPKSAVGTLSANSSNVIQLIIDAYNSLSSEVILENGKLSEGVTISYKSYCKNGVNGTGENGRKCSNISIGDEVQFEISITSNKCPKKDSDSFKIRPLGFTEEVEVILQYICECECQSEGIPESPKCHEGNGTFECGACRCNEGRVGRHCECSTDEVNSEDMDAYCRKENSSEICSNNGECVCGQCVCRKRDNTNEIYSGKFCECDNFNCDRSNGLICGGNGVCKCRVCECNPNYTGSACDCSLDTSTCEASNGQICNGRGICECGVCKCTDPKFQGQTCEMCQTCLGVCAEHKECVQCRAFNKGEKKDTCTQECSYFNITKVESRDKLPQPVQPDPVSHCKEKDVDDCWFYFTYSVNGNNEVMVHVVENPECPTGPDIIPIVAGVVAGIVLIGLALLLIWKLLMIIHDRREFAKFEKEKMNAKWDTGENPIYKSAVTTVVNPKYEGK

Row | Structure (SMILES) | IC50 (α4β7 integrin) [nM] | IC50 (α4β1 integrin) [nM]
1 | Cc1ccccc1C(F)(F)c1cccc([C@H](CC(=O)O)NC(=O)Nc2c(O)ccn(C)c2=O)c1 [Compound 3-65, sodium (S)-3-(3-(difluoro(o-tolyl)methyl)phenyl)-3-(3-(1-methyl-4-oxido-2-oxo-1,2-dihydropyridin-3-yl)ureido)propanoate] | < 200 | < 20
2 | Cc1cccc(Cc2cccc([C@H](CC(=O)O)NC(=O)Nc3c(O)ccn(C)c3=O)c2)c1 [Compound 3-83, sodium (S)-3-(3-(1-methyl-4-oxido-2-oxo-1,2-dihydropyridin-3-yl)ureido)-3-(3-(3-methylbenzyl)phenyl)propanoate] |  | < 200
3 | Cn1ccc(O)c(NC(=O)N[C@@H](CC(=O)O)c2cccc(Cc3ccccc3C(F)(F)F)c2)c1=O [Compound 3-88, sodium (S)-3-(3-(1-methyl-4-oxido-2-oxo-1,2-dihydropyridin-3-yl)ureido)-3-(3-(2-(trifluoromethyl)benzyl)phenyl)propanoate] |  | < 20
4 | Cn1ccc(O)c(NC(=O)N[C@@H](CC(=O)O)c2cccc(Cc3cccc(C(F)(F)F)c3)c2)c1=O [Compound 3-89, sodium (S)-3-(3-(1-methyl-4-oxido-2-oxo-1,2-dihydropyridin-3-yl)ureido)-3-(3-(3-(trifluoromethyl)benzyl)phenyl)propanoate] |  | < 20
5 | Cc1cn(C)c(=O)c(NC(=O)NC(CC(=O)O)c2cccc(Cc3cccc(Cl)c3)c2)c1O (stereo not drawn) [Compound 1-25, sodium 3-(3-(3-chlorobenzyl)phenyl)-3-(3-(1,5-dimethyl-4-oxido-2-oxo-1,2-dihydropyridin-3-yl)ureido)propanoate] |  | < 200
6 | Cc1cn(C)c(=O)c(NC(=O)NC(CC(=O)O)c2cccc(Cc3ccc(Cl)cc3)c2)c1O (stereo not drawn) [Compound 1-26, sodium 3-(3-(4-chlorobenzyl)phenyl)-3-(3-(1,5-dimethyl-4-oxido-2-oxo-1,2-dihydropyridin-3-yl)ureido)propanoate] |  | > 200
7 | CCc1ccccc1Cc1cccc([C@H](CC(=O)O)NC(=O)Nc2c(O)ccn(C)c2=O)c1 [Compound 3-80, sodium (S)-3-(3-(2-ethylbenzyl)phenyl)-3-(3-(1-methyl-4-oxido-2-oxo-1,2-dihydro-pyridin-3-yl)ureido)propanoate] |  | < 20
8 | COc1ccccc1Cc1cccc([C@H](CC(=O)O)NC(=O)Nc2c(O)ccn(C)c2=O)c1 [Compound 3-92] |  | < 20

Now from value to compound:

Row | IC50 (α4β7 integrin) [nM] | IC50 (α4β1 integrin) [nM] | Structure (SMILES)
9 |  | < 20 | Cc1ccccc1Oc1ccc([C@H](CC(=O)O)NC(=O)Nc2c(O)ccn(C)c2=O)cc1 [Compound 3-74, sodium (S)-3-(3-(1-methyl-4-oxido-2-oxo-1,2-dihydropyridin-3-yl)ureido)-3-(4-(o-tolyloxy)phenyl)propanoate]
10 |  | < 200 | COc1cccc(Oc2ccc([C@H](CC(=O)O)NC(=O)Nc3c(O)ccn(C)c3=O)cc2)c1 [Compound 3-73, sodium (S)-3-(4-(3-methoxyphenoxy)phenyl)-3-(3-(1-methyl-4-oxido-2-oxo-1,2-dihydropyridin-3-yl)ureido)propanoate]
11 |  | < 200 | COc1cccc(Oc2ccc([C@H](CC(=O)O)NC(=O)Nc3c(O)cc(C)n(C)c3=O)cc2)c1 [Compound 2-12, sodium (S)-3-(3-(1,6-dimethyl-4-oxido-2-oxo-1,2-dihydropyridin-3-yl)ureido)-3-(4-(3-methoxyphenoxy)phenyl)propanoate]
12 |  | < 200 | Cc1ccc(Oc2ccc([C@H](CC(=O)O)NC(=O)Nc3c(O)ccn(C)c3=O)cc2)cc1 [Compound 3-75, sodium (S)-3-(3-(1-methyl-4-oxido-2-oxo-1,2-dihydropyridin-3-yl)ureido)-3-(4-(p-tolyloxy)phenyl)propanoate]
13 | < 20 | < 200 | Cn1ccc(O)c(NC(=O)N[C@@H](CC(=O)O)c2cccc(Oc3ccccc3)c2)c1=O [Compound 3-71, sodium (S)-3-(3-(1-methyl-4-oxido-2-oxo-1,2-dihydropyridin-3-yl)ureido)-3-(3-phenoxyphenyl)propanoate]
